Experiments:
[1] = biological target: T1, recombinant hClC-2 chloride channel (Homo sapiens, UniProt P51788); test: Whole cell patch clamp, HEK cells transfected with hClC-2 (Test Example 1); type: cell-based; details: for Effect on Cl currents in HEK cells transfected with hClC-2 (in words): 1 μM; for Cl channel activity: 1 μM in 1% DMSO, HEK cells transfected with hClC-2
T1 construct: His; T7; expressed in transfected cells; host or cells: HEK-293 (ATCC), pcDNA3.1, G-418 selected
T1 sequence (P51788 1-898): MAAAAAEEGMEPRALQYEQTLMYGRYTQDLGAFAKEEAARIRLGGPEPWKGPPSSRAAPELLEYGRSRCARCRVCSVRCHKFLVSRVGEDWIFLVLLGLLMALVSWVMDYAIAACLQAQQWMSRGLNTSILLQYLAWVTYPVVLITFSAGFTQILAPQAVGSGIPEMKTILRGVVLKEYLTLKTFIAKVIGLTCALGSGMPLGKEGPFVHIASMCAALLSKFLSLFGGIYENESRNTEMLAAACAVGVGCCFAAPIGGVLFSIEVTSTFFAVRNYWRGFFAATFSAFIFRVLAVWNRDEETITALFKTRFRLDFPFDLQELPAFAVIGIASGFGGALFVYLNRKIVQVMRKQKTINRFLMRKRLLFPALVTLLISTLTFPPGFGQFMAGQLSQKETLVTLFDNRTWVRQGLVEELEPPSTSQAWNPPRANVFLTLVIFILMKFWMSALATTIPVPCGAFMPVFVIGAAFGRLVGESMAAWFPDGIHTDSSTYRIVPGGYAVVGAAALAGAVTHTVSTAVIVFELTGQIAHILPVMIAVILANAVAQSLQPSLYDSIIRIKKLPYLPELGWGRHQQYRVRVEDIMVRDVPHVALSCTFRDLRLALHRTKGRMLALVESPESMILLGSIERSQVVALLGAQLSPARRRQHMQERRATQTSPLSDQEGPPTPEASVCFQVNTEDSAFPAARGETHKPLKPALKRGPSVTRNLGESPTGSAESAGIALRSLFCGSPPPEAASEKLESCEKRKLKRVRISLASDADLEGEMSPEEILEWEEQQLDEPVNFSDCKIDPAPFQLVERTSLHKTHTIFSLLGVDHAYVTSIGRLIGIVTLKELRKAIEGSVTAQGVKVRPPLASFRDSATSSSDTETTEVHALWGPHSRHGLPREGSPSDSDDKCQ
Text: Whole cell patch clamp method was used to assess the effect of compound 1 (13,14-dihydro-15-keto-16,16-difluoro-PGE1) and compound 2 (13,14-dihydro-15-keto-16,16-difluoro-18 (S)-methyl-PGE1) on recombinant hClC-2 chloride channel. In this example, effects of the respective compounds on Human Epithelial Kidney (HEK) cells transfected with human ClC-2 (hClC-2) were examined, and the results were compared with those on non-transfected HEK cells.
ClC-2 transfected human epithelial kidney (HEK) cells were prepared and used. HEK-293 cells obtained from American Type Culture Collection (ATCC; Manassas, Va.) were transfected with His- and T7-tagged human ClC-2 cDNA in the mammalian expression vector pcDNA3.1 (GIBCO/Invitrogen) using Lipofectamine (GIBCO/Invitrogen) for 5 h at 37° C. in serum-free medium. Cells were then resuspended in the serum-containing medium and cultured in the presence of 300 μg/ml G-418 (GIBCO/Invitrogen). The surviving cells were then expanded, tested to confirm expression of Cl- current and ClC-2 mRNA, and the cells expressing ClC-2 mRNA were frozen to store. Upon studies, the stored cells were thawed and maintained at 37° C. in 5%/95% CO2/O2 in MEM (GIBCO/Invitrogen) supplemented with 5% inactivated horse serum, 0.1 mM nonessential amino acids, 2 mM L-glutamine, 1 mM sodium pyruvate, 100 units/ml penicillin, and 100 μg/ml streptomycin sulfate.
In the whole cell patch clamp measurements, currents were elicited by voltage clamp pulses (1500 ms duration) between +40 mV and −140 mV, in 20 mV increments, from the beginning holding potential of −30 mV. Currents were measured 50-100 ms after start of the pulse. The external solution was normal Tyrode solution containing 135 mM NaCl, 1.8 mM CaCl2, 1 mM MgCl2, 5.4 mM KCl, 10 mM glucose, and 10 mM HEPES (pH 7.35). The pipette solution was 130 mM CsCl, 1 mM MgCl2, 5 mM EGTA, and 10 mM HEPES (pH 7.35); also present in the pipette was 1 mM ATP—Mg^2+ (pH 7.4).
Pipettes were prepared from borosilicate glass and pulled by a two stage Narashige puller to give 1-1.5 MΩ resistance. Data were acquired with Axopatch CV-4 headstage with Digidata 1200 digitizer and Axopatch 1D amplifier. Data were analyzed using pClamp 6.04 (Axon Instruments, Foster City, Calif.), Lotus 123 (IBM) and Origin (Microcal) software.
Compound 1 and compound 2 were used at a final concentration of 1 μM in 1% DMSO.

[2] = biological target: T2, recombinant human ClC-2 Chloride Channels (Homo sapiens, UniProt P51788); test: Whole cell patch clamp, ClC-2 transfected HEK cells, current increase (Test Example 4); type: cell-based; details: 100 nM, change from control
T2 construct: His; T7; expressed in transfected cells; host or cells: HEK-293 (ATCC), pcDNA3.1, G-418 selected
T2 sequence (P51788 1-898): T1 sequence (P51788 1-898)
Method: According to the same manner as described in Example 1, whole cell patch clamp measurements were carried out.
Test compounds were used at a final concentration of 100 nM.

[3] = system: Chloride Ion Transport into Bile; test: Chloride ion transport into bile in rats (Test Example 7); type: in vivo, male Wistar rats
Method: Compound 2 (13,14-dihydro-15-keto-16,16- difluoro-18(S)-methyl-prostaglandin E1) of 100 μg/kg was orally administered to male Wistar rats (six weeks old, weight:180-210 g) three times a day for seven days. The control group (n=7) received the same volume of vehicle (distilled water containing 0.01% polysorbate 80 and 0.5% ethanol). In the following morning of the final administration day (about 17 hours after the final administration), a polyethylene catheter (PE10, Becton Dickinson and Company) was inserted in the rats' choledoch under ether anesthesia. The rats were placed into Borrmann's cages and were left for 1 hour to awake from anesthesia. Bile discharged in one hour, from one to two hours after the insertion of the catheter, was collected and the concentration of chloride ion in the bile was measured with a chloride counter (CL-7, Hiranuma Sangyo Co., Ltd.). Student's t-test was used in the comparison of the control group and the group receiving Compound 2. P values less than 0.05 were considered to be statistically significant.

Structure (SMILES)	Effect on Cl currents in HEK cells transfected with hClC-2 (in words) [1]	Cl channel activity [1] [nS/pF]	Activation of ClC-2 channels ΔpA/pF [2] [pA/pF]	Effect on concentration of chloride ions in the bile (in words) ([3]; 100 μg/kg P.O. t.i.d. 7 days, compared with control group)	Chloride Ion Concentration in Bile, Mean ± S.E. ([3]; 100 μg/kg P.O., t.i.d. for 7 days, about 17 hours after final administration) [mEq/L]
CC[C@H](C)CC(F)(F)C(=O)CC[C@H]1[C@H](O)CC(=O)[C@@H]1CCCCCCC(=O)O [Compound 2, 13,14-dihydro-15-keto-16,16-difluoro-18(S)-Methyl-PGE1]	activated	0.558 ± 0.100	22.6	increased significantly	98.4 ± 1.8
CCCCC(F)(F)[C@@]1(O)CC[C@H]2[C@@H](CC(=O)[C@@H]2CCCCCCC(=O)O)O1 [Compound 1, (−)-7-[(2R,4aR,5R,7aR)-2-(1,1-difluoropentyl)-2-hydroxy-6-oxoperhydrocyclopenta[b]pyran-5-yl]heptanoic acid]	activated	1.820 ± 0.114	39.8		

— patent US7253295B2, “Chloride channel opener” (Sucampo AG, priority 2001, dated 2007)
